In patent US20250276993A1, “PSEUDO-DISACCHARIDE COMPOUNDS” (UNIVERSITEIT LEIDEN, priority 2022, published 2025):

What was measured:
HPSE (platelet) = target: T1, HPSE (platelet) (Homo sapiens, UniProt Q9Y251); assay: cABPP Assay 2, platelet lysates, HPSE; assay type: biochemical; settings: for IC50: apparent IC50, in-gel competitive ABPP-based assay, platelet lysate, read-out: In vitro IC50 HPSE (platelet); for inhibitor concentration down to which HPSE signal is abrogated: platelet lysates, preincubation with inhibitor
T1 construct: endogenous in cells; host or cells: human platelet lysates
T1 sequence (Q9Y251 158-543 limits assumed): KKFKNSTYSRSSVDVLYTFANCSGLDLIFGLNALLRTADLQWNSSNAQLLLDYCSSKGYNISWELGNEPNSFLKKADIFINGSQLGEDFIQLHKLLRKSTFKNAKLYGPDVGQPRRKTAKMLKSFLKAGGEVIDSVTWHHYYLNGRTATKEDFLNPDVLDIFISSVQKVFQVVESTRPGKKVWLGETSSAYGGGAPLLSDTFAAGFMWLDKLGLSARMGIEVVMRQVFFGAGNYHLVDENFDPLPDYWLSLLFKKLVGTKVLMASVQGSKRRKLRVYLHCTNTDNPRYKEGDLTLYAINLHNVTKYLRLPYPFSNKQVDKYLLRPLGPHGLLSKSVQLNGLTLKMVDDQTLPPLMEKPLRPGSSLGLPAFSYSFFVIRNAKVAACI
T1 sequence (Q9Y251 36-109 limits assumed): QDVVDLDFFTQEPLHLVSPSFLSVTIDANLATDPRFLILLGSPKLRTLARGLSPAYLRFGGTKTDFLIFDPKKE
Description: (§1) For further competitive ABPP studies, a working protein mixture was prepared by mixing the platelet lysates (87.5 μL), buffer (pH 5.0, 150 mM, 157.5 μL) and 3 M NaCl solution (35 μL). The enzymatic reactions were carried out at a constant concentration of read-out 7 (100 nM, final). For each inhibitor 2, 12 and 13, triplicate sets of ten 0.5 mL low protein binding Eppendorf tubes were prepared. Working solutions of each inhibitor (1% DMSO (w/v), 5 μL) in a range of ten concentrations (100, 50, 25, 12.5, 6.3, 3.1, 1.6, 0.8, 0.4, 0 μM) were prepared with MilliQ water and kept on ice. The working protein mixture (8 μL) was added in each protein low binding 0.5 mL Eppendorf tube, and 1 μL of inhibitor solution was added while on ice.
(§2) Further cABPP studies were undertaken using platelet lysates to provide a more physiologically realistic environment. Platelet lysates contain complex mixtures of overlapping enzyme activities, including both endo- and exo-β-glucuronidases HPSE and GUSB respectively, thus provide a challenging environment to test inhibitor specificity.

AcGH79 = AcGH79 (Acidobacterium capsulatum, UniProt C1F2K5); assay: in-gel competitive ABPP, recombinant AcGH79; assay type: biochemical, A. capsulatum; settings: Cy5-tagged β-D-glucuronidase ABP read-out, at the tested enzyme concentration
Description: (§3) ABP labelling reactions were carried out in Mcllvaine buffer (pH 5.5), 300 mM NaCl. For recombinant proteins 200 fmol of EcGH2, BpHep, AcGH79, HPSE or proHPSE was used (20 nM in 10 μl final reaction volume). For labeling cell lysates, 4-20 μg total protein was used. Labeling reactions were initiated by the addition of ABP compounds 7, 8 or 9 to a final concentration of 100 nM (unless otherwise specified), before incubation for 30 min at 37° C. with shaking. Following labeling, samples were denatured by boiling with Laemmli buffer for 5 min and resolved by SDS-PAGE. Gels were scanned using Typhoon-5 laser scanner platform (Cytiva), using the λEX 635 nm laser and 670BP30 emission filter. For competitive ABPP (cABPP) experiments, protein mixtures were preincubated with inhibitor (or buffer only control) for 1 h at 37° C. with shaking, before the addition of 7 to a final concentration of 100 nM, and subsequent incubation for 30 min at 37° C. with shaking. SDS-PAGE and analysis steps were carried out as above. For quantitative measurements, fluorescently labeled band intensities were calculated using Imagequant (Cytiva), and normalized to the corresponding band in the inhibitor free control lane. cABPP plots were prepared and analyzed using SigmaPlot 14.0 (Systat).
(§4) Competitive activity of compounds 2, 12 and 13 were investigated using cABPP Assay 2.

GUSB = target: T2, GUSB (Homo sapiens, UniProt P08236); assay: cABPP Assay 2, platelet lysates, GUSB; assay type: biochemical; settings: preincubation with inhibitor
T2 construct: Platelet lysates contain complex mixtures of overlapping enzyme activities, including both endo- and exo-β-glucuronidases HPSE and GUSB; endogenous in cells; host or cells: human platelet lysates
T2 sequence (P08236 23-651): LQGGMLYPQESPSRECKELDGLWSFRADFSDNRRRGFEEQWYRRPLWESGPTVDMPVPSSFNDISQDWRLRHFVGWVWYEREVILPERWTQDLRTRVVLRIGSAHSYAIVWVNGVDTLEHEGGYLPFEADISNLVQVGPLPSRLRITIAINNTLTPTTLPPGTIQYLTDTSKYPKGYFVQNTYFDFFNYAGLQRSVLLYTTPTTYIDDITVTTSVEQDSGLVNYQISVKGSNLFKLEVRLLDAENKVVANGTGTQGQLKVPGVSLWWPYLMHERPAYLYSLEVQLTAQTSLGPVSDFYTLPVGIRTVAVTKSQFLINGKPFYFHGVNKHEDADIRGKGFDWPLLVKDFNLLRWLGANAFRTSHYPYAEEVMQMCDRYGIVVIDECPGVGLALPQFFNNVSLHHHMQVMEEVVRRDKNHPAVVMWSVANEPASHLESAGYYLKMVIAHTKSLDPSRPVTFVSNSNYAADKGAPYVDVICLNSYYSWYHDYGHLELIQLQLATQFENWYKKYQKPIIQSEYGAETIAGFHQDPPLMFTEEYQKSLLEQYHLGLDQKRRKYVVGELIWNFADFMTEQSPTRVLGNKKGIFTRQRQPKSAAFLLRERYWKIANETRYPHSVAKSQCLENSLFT
Description: as §1, §2

rHPSE = target: T3, rHPSE (Homo sapiens, UniProt Q9Y251); assay: in-gel competitive ABPP, recombinant HPSE; assay type: biochemical; settings: for IC50: apparent IC50, in-gel competitive ABPP-based assay, read-out: In vitro IC50 rHPSE
T3 sequence (Q9Y251 36-109 limits assumed): T1 sequence (Q9Y251 36-109 limits assumed)
T3 sequence (Q9Y251 158-543 limits assumed): T1 sequence (Q9Y251 158-543 limits assumed)
Description: as §3, §4
To gain insight into HPSE structure-activity relationships, apparent HPSE inhibition was tested for cyclitol 12, its disaccharidic analogue 13 and parent HPSE inhibitor 2 (FIG. 7a). […] Conversely, 13 could inactivate rHPSE down to 2 μM inhibitor concentration similar to 2.

HPSE [1] = target: T4, HPSE (Homo sapiens, UniProt Q9Y251); assay: X-ray crystallography, ligand soaking of HPSE crystals; settings: crystal soaking
T4 sequence (Q9Y251 36-109 limits assumed): T1 sequence (Q9Y251 36-109 limits assumed)
T4 sequence (Q9Y251 158-543 limits assumed): T1 sequence (Q9Y251 158-543 limits assumed)
From the text: Xray diffraction data were collected at 100 K at beamlines i03 (HPSE-2, HPSE-3, HPSE-4, EcGUSB-1, BpHep-3), i04 (AcGH79-2, BpHep-2) and i04-1 (Apo-AcGH79, AcGH79-1, AcGH79-3) of the Diamond Light Source UK. Reflections were autoprocessed using the XIA2 pipeline. Complexes were solved by directly refining against their unliganded structures where isomorphous, or else solved by molecular replacement with PHASER (search model PDB accessions: 5E98 (HPSE), 3VNY (AcGH79), 3K46 (EcGUSB), 5BWI (BpHep)). […] Ligand coordinates were built using jLigand. Diagrams were generated using PyMOL.
HPSE—Well diffracting crystals of HPSE were obtained by the sitting-drop vapor-diffusion method at 20° C. using a well solution containing 0.1 M MES pH 5.5, 0.1 M MgCl2, 17% (w/v) PEG 3350, and a protein to well solution ratio of 200 nl:500 nl. Crystals typically appeared after 1 week. Inhibitor ligand complexes were obtained by transferring HPSE crystals to drops of well solution supplemented with 25% (v/v) ethylene glycol and 1-5 mM inhibitor. Crystals were incubated with ligand for ˜2-4 h, then directly harvested and flash-cooled in LN2 for data collection.
To better understand the molecular basis of interaction between our inhibitors and their targets, we turned to X-ray crystallography, using ligand soaking to derivatize enzymes in crystallo.

HPSE [2] = target: T4, HPSE; assay: cABPP Assay 1, recombinant HPSE; assay type: biochemical; settings: 1 h preincubation at 37° C., pH 5.5, 100 nM ABP 7
BpHep and AcGH79 = assay type: biochemical, B. pseudomallei; A. capsulatum; settings: cABPP Assay 1
HPSE [3] = target: T5, HPSE (Homo sapiens, UniProt Q9Y251); assay: fluorescent ABP labelling of whole cell lysates; assay type: biochemical
T5 construct: fluorescent ABPs 7, 8 and 9 were applied to whole cell lysates from a panel of human cancer cell lines; endogenous in cells; host or cells: U87, PANC1, SKBR3, MDA-MB-231, HT1080, platelet lysates
T5 sequence (Q9Y251 36-543): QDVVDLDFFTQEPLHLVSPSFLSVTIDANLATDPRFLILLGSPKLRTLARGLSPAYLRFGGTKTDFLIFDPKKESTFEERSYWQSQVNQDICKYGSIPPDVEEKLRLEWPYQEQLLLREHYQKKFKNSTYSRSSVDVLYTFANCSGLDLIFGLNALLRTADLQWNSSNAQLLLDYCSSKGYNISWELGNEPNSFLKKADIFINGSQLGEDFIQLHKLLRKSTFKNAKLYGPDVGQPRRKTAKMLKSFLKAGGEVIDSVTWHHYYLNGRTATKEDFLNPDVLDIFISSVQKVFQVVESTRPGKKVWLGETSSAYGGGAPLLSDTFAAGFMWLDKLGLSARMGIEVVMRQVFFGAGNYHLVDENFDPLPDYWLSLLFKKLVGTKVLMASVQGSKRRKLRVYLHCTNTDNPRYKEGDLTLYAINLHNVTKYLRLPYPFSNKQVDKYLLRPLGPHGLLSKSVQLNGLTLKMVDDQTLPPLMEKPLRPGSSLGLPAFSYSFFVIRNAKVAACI
Description: as §3, with “(Systat). […]” for “(Systat).”

For O=C(O)C1C2O[C@H]2C(O)C(O)[C@@H]1O[C@H]1CC(CO)[C@@H](O)C(O)C1O (stereo in doubt) [Compound 12, 4,5-dihydroxy-3-((2,3,4-trihydroxy-5-(hydroxymethyl)cyclohexyl)oxy)-7-oxabicyclo[4.1.0]heptane-2-carboxylic acid], the IC50 (HPSE (platelet)) was 0.4 ± 0.2 µM, the “inhibitor concentration down to which HPSE signal is abrogated” value (HPSE (platelet)) was 2.5 µM and the IC50 (AcGH79) was 1.2 ± 0.3 µM. For the same compound, the “effect on GUS signals” value (GUSB) was “without altering GUS signals” and the IC50 (rHPSE) was 0.5 ± 0.5 µM.
With O=C(O)C1C2O[C@H]2C(O)C(O)[C@@H]1O[C@H]1OC(CO)[C@@H](O)C(O)C1O (stereo in doubt) [Compound 13, 4,5-dihydroxy-3-((3,4,5-trihydroxy-6-(hydroxymethyl)tetrahydro-2H-pyran-2-yl)oxy)-7-oxabicyclo[4.1.0]heptane-2-carboxylic acid] the IC50 (HPSE (platelet)) was 5 ± 1 µM, the “inhibitor concentration down to which HPSE signal is abrogated” value (HPSE (platelet)) was 2.5 µM and the “effect on GUS signals” value (GUSB) was “without altering GUS signals”. The IC50 (rHPSE) was 1 ± 1 µM and the “inhibitor concentration down to which rHPSE is inactivated” value (rHPSE; in-gel competitive ABPP) was 2 µM.
With O=C(O)C1C2O[C@H]2C(O)C(O)[C@@H]1O[C@@H]1CC(O)[C@H](O)C(CO)O1 (stereo partly drawn) [Compound 4, 4-O-(2-deoxy-D-glucopyranosyl)-glucurono-cyclophellitol] the “binding mode in HPSE active site cleft” value (HPSE [1]) was “covalent linkages between their pseudo-anomeric carbons and the enzyme nucleophile Glu343” and the “HPSE inhibition (abrogation of labelling by ABP 7)” value (shortened to “HPSE inhibition”) (HPSE [2]) was “inhibited HPSE at nanomolar concentrations”.
In the case of NC1C(O)[C@H](O)C(CO)O[C@@H]1O[C@H]1C(O)C(O)[C@@H]2OC2C1C(=O)O (stereo partly drawn) [Compound 5, 4-O-(2-amino-2-deoxy-D-glucopyranosyl)-glucurono-cyclophellitol], the “HPSE inhibition” value (HPSE [2]) is reported as “do not inhibit HPSE well” and the “Inhibition of BpHep and AcGH79” value (BpHep and AcGH79) is reported as “all compounds apart from 5 showing activity”.
[N-]=[N+]=NCC(=O)NC1C(O)[C@H](O)C(CO)O[C@@H]1O[C@H]1C(O)C(O)[C@@H]2OC2C1C(=O)O (stereo partly drawn) [Compound 6, 4-O-(2-N-azidoacetyl-2-deoxy-D-glucopyranosyl)-glucurono-cyclophellitol] was tested, and the “HPSE inhibition” value (HPSE [2]) was “do not inhibit HPSE well”.
With CC(=O)NC1[C@@H](O[C@@H]2C(C(=O)O)C3O[C@H]3C(O)[C@H]2O)OC(CO)[C@@H](OCCCCCCCCNC(=O)CCCCC[N+]2=C(/C=C/C=C/C=C3/N(C)c4ccccc4C3(C)C)C(C)(C)c3ccccc32)[C@@H]1O (stereo partly drawn) [Compound 9, 4-O-(2-N-acetyl-2-deoxy-4-O-(8-amino-Cy5-1-octyl)-α-D-glucopyranosyl)-glucurono-cyclophellitol] the most substantial off-target (HPSE [3]; 10 μM ABP concentration) was “serum albumin” and the “HPSE specificity of labelling” value (HPSE [3]; ABP at 1 μM and 10 μM, lysates of U87, PANC1, SKBR3, MDA-MB-231, HT1080, platelets) was “markedly improved HPSE specificity compared to both 7 and 8”.
